Assay [1] addresses T1, human EP1 receptor of the present invention (Homo sapiens, UniProt P34995).
T1 construct: The cDNA insert was cut off from pT7BluehEP1 by EcoR1 digestion, and inserted into EcoR1 site of expression vector pdKCR-dhfr; expressed in transfected cells; A1 used their membrane fraction, A3 used whole cells
T1 sequence (P34995 1-402): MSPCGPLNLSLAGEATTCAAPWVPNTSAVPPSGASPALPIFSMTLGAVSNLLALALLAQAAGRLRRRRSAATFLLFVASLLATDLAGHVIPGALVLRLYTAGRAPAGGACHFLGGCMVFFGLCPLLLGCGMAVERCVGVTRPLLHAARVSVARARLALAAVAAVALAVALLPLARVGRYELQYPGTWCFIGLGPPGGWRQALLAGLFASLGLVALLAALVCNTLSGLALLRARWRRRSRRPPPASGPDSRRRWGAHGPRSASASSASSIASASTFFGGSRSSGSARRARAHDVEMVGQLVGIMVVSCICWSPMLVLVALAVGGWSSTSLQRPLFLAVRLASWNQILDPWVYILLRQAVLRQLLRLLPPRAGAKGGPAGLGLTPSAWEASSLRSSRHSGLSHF
The experiment in a line: Binding assay of [3H]-PGE2 with membrane fraction of CHO cells expressing human EP1 receptor of the present invention. To be noted: nonspecific binding with 10 μM PGE2. How it is done: 1) Gene Transfection into CHO Cells and Isolation of Clones Expressing Human EP1 Receptor
The cDNA insert was cut off from pT7BluehEP1 by EcoR1 digestion, and inserted into EcoR1 site of expression vector pdKCR-dhfr in the proper orientation. Approximately 25-50 ug of expression plasmid was digested completely with proper restriction enzymes (SalI, SacII etc.), purified by Phenol/CIAA extraction, CIAA extraction and ethanol precipitation, and dissolved in 50 μl of sterilized water. CHO-dhfr(−) cells used as host were suspended in 1.0-1.5×10^6 cells/0.8 ml of PBSuc buffer (sucrose 272 mM, K^+PO4^2− buffer (7 mM, pH7.4) and MgCl2 (1 mM)). […]
Reaction mixtures (200 μl) containing the membrane fraction, which was prepared by the above method and contains human EP1 receptor, and various concentrations of [3H]-PGE2 were incubated at room temperature for a certain time, separated by rapid filtration using Cell Harvester (Brandel). […] Residual [3H]-PGE2 bound to the filter (total binding) was quantitated by liquid scintillation counter. Nonspecific binding was quantitated in a similar manner in the presence of 10 μM of PGE2. […]
The specific binding thus obtained was analyzed by Scatchard plots, an equilibrium dissociation constant (Kd; nM) and a maximum number of specific binding sites (Bmax; fmol/mg protein) were determined. […]

The target in assay [2] is T2, human EP1 receptor described in Japanese Patent No. 3,090,472 (Homo sapiens, UniProt P34995, A71T/L230H).
T2 construct: expressed in transfected cells; host or cells: cells expressing the receptor of JP 3,090,472
T2 sequence (P34995 1-402 A71T/L230H): T1 sequence (P34995 1-402) with A71T, L230H
The experiment in a line: Binding assay of [3H]-PGE2 with cells expressing human EP1 receptor described in Japanese Patent No. 3,090,472. To be noted: cells expressing human EP1 receptor of Japanese Patent No. 3,090,472 (reference). How it is done:
Reaction mixtures (200 μl) containing the membrane fraction, which was prepared by the above method and contains human EP1 receptor, and various concentrations of [3H]-PGE2 were incubated at room temperature for a certain time, separated by rapid filtration using Cell Harvester (Brandel). The membrane fraction was recovered on glass filter and washed several times with the buffer cooled on ice (1-2 ml/wash). Residual [3H]-PGE2 bound to the filter (total binding) was quantitated by liquid scintillation counter. Nonspecific binding was quantitated in a similar manner in the presence of 10 μM of PGE2. Specific binding was defined as the difference between total binding and nonspecific binding.
The specific binding thus obtained was analyzed by Scatchard plots, an equilibrium dissociation constant (Kd; nM) and a maximum number of specific binding sites (Bmax; fmol/mg protein) were determined. The result obtained using the cells expressing human EP1 of the present invention was shown in FIG. 1, and the result obtained using the cells expressing human EP1 described in Japanese Patent No. 3,090,472 in FIG. 2, respectively.

In assay [3] the target is T1, human EP1 receptor of the present invention. The assay is described as follows: Measurement of intracellular Ca2+ concentration in cells expressing human EP1 receptor of the present invention. The following applies: Fura2-AM fluorescence. In kind it is cell-based. How it is done:
(§1) The cells were cultured in 500 cm^2 treys to reach confluence, washed with PBS(−), and peeled off by pipeting with PBS(−) on ice. After centrifugation at 800 rpm for 3 minutes, the cell pellet was suspended in medium A (15 ml) and incubated at 37° C. for 50 minutes followed by at room temperature for 10 minutes. After re-centrifugation the pellet was suspended in medium B (1-2×10^6/ml) and used for experiments. In the case that cell suspension contains Fura2-AM (Dojin), the operations were shielded the light by aluminum foil. Stirring the cell suspensions (400 μl) at 600 rpm, the changes of intracellular Ca^2+ concentration were measured by monitoring the changes of fluorescence intensity at both 340 nm and 380 nm and the ratio thereof, using CAM-220 Spectrofluorometer (Nihon Bunko Kogyo).
(§2) Medium A: • α-MEM containing fura2-AM (5 μM)), indomethacin (10 μM), HEPES-NaOH (pH7.4, 10 mM) and 10% FCS,
(§3) Medium B: • α-MEM containing indomethacin (1 μM), HEPES-NaOH (pH7.4, 10 mM) and 0.1% BSA.
(§4) The changes in intracellular Ca^2+ concentration using the cells expressing human EP1 receptor of the present invention and the cells expressing human EP1 receptor described in Japanese Patent No. 3,090,472 were shown in FIG. 3. In FIG. 3, “reference” means the result obtained by using the cells expressing human EP1 receptor described in Japanese Patent No. 3,090,472.

In assay [4] the target is T2, human EP1 receptor described in Japanese Patent No. 3,090,472. The experiment in a line: Measurement of intracellular Ca2+ concentration in cells expressing human EP1 receptor described in Japanese Patent No. 3,090,472. In kind it is cell-based. To be noted: cells expressing human EP1 receptor of Japanese Patent No. 3,090,472 (reference); Fura2-AM fluorescence. How it is done: as §1, §2, §3, §4

Numbering of substitutions follows the chain as printed.

Consider `CCCCC[C@H](O)/C=C/[C@H]1[C@H](O)CC(=O)[C@@H]1C/C=C\CCCC(=O)O` [[^3H]-PGE2], for which the “specific binding of [3H]-PGE2 to the receptor” value in assay [1] is given as “extremely high specific binding”; in assay [2] it was “detected”.
Consider `CCCCC[C@H](O)/C=C/[C@H]1[C@H](O)CC(=O)[C@@H]1C/C=C\CCCC(=O)O` [PGE2, prostaglandin E2], for which the “PGE2 dependent elevation of intracellular Ca2+ concentration” value is recorded as “detected” in assay [3] and “not detected at all” in assay [4].

The record behind these values is patent publication US7608411B2, “Prostaglandin receptor EP1” (Ono Pharmaceutical Co., Ltd., priority 2001, dated 2009).
